One test concerns the target T1, M1 muscarinic receptor (Homo sapiens, UniProt P11229).
T1 construct: expressed in transfected cells; host or cells: CHO (M1-CHO)
T1 sequence (P11229 1-460): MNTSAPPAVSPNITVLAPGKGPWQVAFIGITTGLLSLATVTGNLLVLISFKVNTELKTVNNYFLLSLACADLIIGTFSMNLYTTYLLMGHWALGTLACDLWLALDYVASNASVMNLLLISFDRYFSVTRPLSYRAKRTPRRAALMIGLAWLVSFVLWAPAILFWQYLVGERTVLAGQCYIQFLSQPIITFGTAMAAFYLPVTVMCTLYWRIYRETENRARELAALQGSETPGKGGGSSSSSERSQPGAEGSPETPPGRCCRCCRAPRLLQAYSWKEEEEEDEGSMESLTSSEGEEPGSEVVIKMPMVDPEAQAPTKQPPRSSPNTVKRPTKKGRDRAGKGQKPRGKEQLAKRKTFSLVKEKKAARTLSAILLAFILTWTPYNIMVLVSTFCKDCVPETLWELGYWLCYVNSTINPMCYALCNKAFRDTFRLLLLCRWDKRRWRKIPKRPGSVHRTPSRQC
Briefly: Functional mobilization of intracellular calcium (FLIPR) in M1-CHO cells. The format is cell-based. The conditions noted are these: for Emax: 100% efficacy is the maximum response obtained with the Carbachol control; for M1 Activity: M1 receptor, calcium mobilization (FLIPR); for EC50: CHO cells expressing M1, calcium mobilization. A digest of the protocol:
(§1)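 CHO cells stably expressing human M1 or M4 receptor were loaded with Fluo-3 AM (or Calcium 3 dye) in Hepes-buffered saline, pH 7.4, with 1 mM probenecid, 0.5% final DMSO. Agonist mode: compound added directly; antagonist mode: 15 min preincubation before carbachol at EC80. FLIPR fluorescence recorded 60 sec.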

The target of a further test is T2, M4 muscarinic receptor (Homo sapiens, UniProt P08173).
T2 construct: expressed in transfected cells; host or cells: CHO (M4-CHO)
T2 sequence (P08173 1-479): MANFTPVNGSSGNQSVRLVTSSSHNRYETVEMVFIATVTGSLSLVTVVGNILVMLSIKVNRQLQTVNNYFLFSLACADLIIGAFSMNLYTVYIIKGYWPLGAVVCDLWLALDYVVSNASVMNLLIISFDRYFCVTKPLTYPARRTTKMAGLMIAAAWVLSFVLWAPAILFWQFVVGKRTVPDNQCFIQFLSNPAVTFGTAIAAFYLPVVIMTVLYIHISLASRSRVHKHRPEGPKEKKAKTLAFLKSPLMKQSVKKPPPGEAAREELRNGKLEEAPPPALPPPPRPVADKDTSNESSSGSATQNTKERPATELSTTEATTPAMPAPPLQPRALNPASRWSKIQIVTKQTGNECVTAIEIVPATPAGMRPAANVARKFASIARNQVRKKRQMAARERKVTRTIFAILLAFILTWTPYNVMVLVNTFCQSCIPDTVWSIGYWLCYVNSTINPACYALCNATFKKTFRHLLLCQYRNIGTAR
As to the kind of experiment: Functional mobilization of intracellular calcium (FLIPR) in M4-CHO cells. The format is cell-based. The conditions noted are these: for Emax: 100% efficacy is the maximum response obtained with the Carbachol control; for M4 Activity: M4 receptor, calcium mobilization (FLIPR); for EC50: CHO cells expressing M4, calcium mobilization. The gist of the method:
as §1
(Calcium assays in cells follow changes in intracellular calcium, usually with a dye or a luminescent sensor.)

The record followed here is patent US7786141B2 (Vertex Pharmaceuticals Incorporated, priority 2004, dated 2010).

By Emax is commonly meant the maximal effect, on the per cent scale that the assay sets. For orientation: EC50 means the concentration giving half of the maximal effect.

With `CC(=O)N1CC2(CCN(C[C@@H]3CCN(C(=O)OCC(F)F)C3)CC2)c2ccccc21` [compound 1015], on M1 muscarinic receptor (Table 4), the Emax is 25 to 100%; the “M1 Activity” value was “xx (activity was measured to be between 2.0 μM and 5.0 μM)”. Further, at M4 muscarinic receptor (Table 4), the Emax is below 25% and the “M4 Activity” value is given as “xxx (activity was measured to be less than 2.0 μM)”.

On to `CCCC(=O)N[C@H]1CC2(CCN(C[C@@H]3C[C@H]4C=CC3C4)CC2)c2ccccc21` [compound 1016], for which, at M1 muscarinic receptor (Table 4), the Emax fell in the range of 25 to 100% and the “M1 Activity” value is “xxx (activity was measured to be less than 2.0 μM)”. Moreover, at M4 muscarinic receptor (Table 4), the Emax lay in the range of 25 to 100% and the “M4 Activity” value is listed as “xxx (activity was measured to be less than 2.0 μM)”.

Take `CCCC(=O)N[C@H]1CC2(CCN([C@@H]3CC4CC[C@@H]3C4)CC2)c2ccccc21` [compound 1017]: at M1 muscarinic receptor (Table 4), the Emax lay in the range of 25 to 100% and the “M1 Activity” value was “x (activity was measured to be greater than 5.0 μM)”. Moreover, on M4 muscarinic receptor (Table 4), the Emax lay within 25 to 100% and the “M4 Activity” value is “xxx (activity was measured to be less than 2.0 μM)”.

As to `CC(=O)N1CC2(CCN(C3CCN(c4nccs4)CC3)CC2)c2cc(F)ccc21` [compound 1019], on M1 muscarinic receptor (Table 5), the Emax was 25 to 100% and the EC50 was below 2 µM. On M4 muscarinic receptor (Table 5), the Emax was in the range of 25 to 100% and the EC50 was below 2 µM.

For the compound `CC(=O)N1CC2(CCN(C3CCC4(CC3)CC(C)=NO4)CC2)c2cc(F)ccc21` (centres unmarked) [compound 1020], the results for the Emax on M1 muscarinic receptor (Table 5) and at M4 muscarinic receptor (Table 5) were 25 to 100% and below 25%, respectively. The EC50 on M1 muscarinic receptor (Table 5) and at M4 muscarinic receptor (Table 5) was 2 to 10 µM throughout.

For the compound `CN(C)C(=O)N1CC2(CCN(C3CCN(c4ccccc4F)CC3)CC2)c2cc(F)ccc21` [compound 1024], on M1 muscarinic receptor (Table 5), the Emax lay in the range of 25 to 100% and the EC50 was 2 to 10 µM. Further, at M4 muscarinic receptor (Table 5), the Emax was below 25% and the EC50 was in the range of 2 to 10 µM.

Consider `CN(C)C(=O)N1CC2(CCN(C3CCN(c4cccc(F)c4)CC3)CC2)c2cc(F)ccc21` [compound 1025], for which the Emax on M1 muscarinic receptor (Table 5) and at M4 muscarinic receptor (Table 5) was 25 to 100% throughout. The EC50 was 2 to 10 µM on M1 muscarinic receptor (Table 5) and below 2 µM at M4 muscarinic receptor (Table 5).

For the compound `CN(C)C(=O)N1CC2(CCN(C3CCN(c4ccc(F)cc4)CC3)CC2)c2cc(F)ccc21` [compound 1026], the Emax at M1 muscarinic receptor (Table 5) was 25 to 100%; at M4 muscarinic receptor (Table 5) it was below 25%. The EC50 is 2 to 10 µM at M1 muscarinic receptor (Table 5) and below 2 µM at M4 muscarinic receptor (Table 5).

`COc1ccccc1N1CCC(N2CCC3(CC2)CN(C(=O)N(C)C)c2ccc(F)cc23)CC1` [compound 1027]: on M1 muscarinic receptor (Table 5), the Emax was 25 to 100% and the EC50 lay in the range of 2 to 10 µM. Moreover, at M4 muscarinic receptor (Table 5), the Emax was 25 to 100% and the EC50 was in the range of 2 to 10 µM.

For `COc1cccc(N2CCC(N3CCC4(CC3)CN(C(=O)N(C)C)c3ccc(F)cc34)CC2)c1` [compound 1028], the Emax on M1 muscarinic receptor (Table 5) and on M4 muscarinic receptor (Table 5) was 25 to 100% each time. For the same compound, the EC50 on M1 muscarinic receptor (Table 5) was 2 to 10 µM; on M4 muscarinic receptor (Table 5), below 2 µM.

Regarding `COc1ccc(N2CCC(N3CCC4(CC3)CN(C(=O)N(C)C)c3ccc(F)cc34)CC2)cc1` [compound 1029], the Emax at M1 muscarinic receptor (Table 5) and at M4 muscarinic receptor (Table 5) was 25 to 100% each time. Besides, the EC50 on M1 muscarinic receptor (Table 5) and on M4 muscarinic receptor (Table 5) was 2 to 10 µM in each case.

As for `COc1ccc(F)cc1N1CCC(N2CCC3(CC2)CN(C(=O)N(C)C)c2ccc(F)cc23)CC1` [compound 1030], on M1 muscarinic receptor (Table 5), the Emax lay within 25 to 100% and the EC50 lay in the range of 2 to 10 µM. Further, at M4 muscarinic receptor (Table 5), the Emax lay within 25 to 100% and the EC50 lay within 2 to 10 µM.

Regarding `CN(C)C(=O)N1CC2(CCN(C3CCN(c4cnccn4)CC3)CC2)c2cc(F)ccc21` [compound 1031], the Emax on M1 muscarinic receptor (Table 5) and at M4 muscarinic receptor (Table 5) was 25 to 100% throughout. Moreover, the EC50 at M1 muscarinic receptor (Table 5) and on M4 muscarinic receptor (Table 5) was below 2 µM in each case.

On to `CN(C)C(=O)N1CC2(CCN(C3CCN(c4ncccn4)CC3)CC2)c2cc(F)ccc21` [compound 1032], for which the Emax on M1 muscarinic receptor (Table 5) and at M4 muscarinic receptor (Table 5) was 25 to 100% throughout. Also, the EC50 was 2 to 10 µM on M1 muscarinic receptor (Table 5) and below 2 µM at M4 muscarinic receptor (Table 5).

In the case of `CN(C)C(=O)N1CC2(CCN(C3CCN(c4cncnc4)CC3)CC2)c2cc(F)ccc21` [compound 1033], on M1 muscarinic receptor (Table 5), the Emax lay in the range of 25 to 100% and the EC50 was in the range of 2 to 10 µM. Moreover, at M4 muscarinic receptor (Table 5), the Emax lay within 25 to 100% and the EC50 is below 2 µM.

Turning to `CN(C)C(=O)N1CC2(CCN(C3CCN(c4nccs4)CC3)CC2)c2cc(F)ccc21` [compound 1034], the maximum response (Emax) on M1 muscarinic receptor (Table 5) and on M4 muscarinic receptor (Table 5) was 25 to 100% throughout. Also, the EC50 at M1 muscarinic receptor (Table 5) and on M4 muscarinic receptor (Table 5) was below 2 µM each time.

Regarding `CN(C)C(=O)N1CC2(CCN(C[C@H]3CCN(c4cnccn4)C3)CC2)c2cc(F)ccc21` [compound 1035], on M1 muscarinic receptor (Table 5), the Emax is above 100% and the EC50 is below 2 µM. Besides, at M4 muscarinic receptor (Table 5), the Emax fell in the range of 25 to 100% and the EC50 was below 2 µM.

For `CN(C)C(=O)N1CC2(CCN(C[C@@H]3CCN(c4cnccn4)C3)CC2)c2cc(F)ccc21` [compound 1036], at M1 muscarinic receptor (Table 5), the Emax lay within 25 to 100% and the EC50 is below 2 µM. Moreover, on M4 muscarinic receptor (Table 5), the Emax lay within 25 to 100% and the EC50 is below 2 µM.

In the case of `CN(C)C(=O)N1CC2(CCN(C[C@H]3CCN(c4nccs4)C3)CC2)c2cc(F)ccc21` [compound 1037], on M1 muscarinic receptor (Table 5), the Emax fell in the range of 25 to 100% and the EC50 fell in the range of 2 to 10 µM. At M4 muscarinic receptor (Table 5), the Emax was 25 to 100% and the EC50 was below 2 µM.

As for `CN(C)C(=O)N1CC2(CCN(C[C@@H]3CCN(c4nccs4)C3)CC2)c2cc(F)ccc21` [compound 1038], the Emax on M1 muscarinic receptor (Table 5) and at M4 muscarinic receptor (Table 5) was 25 to 100% throughout. Also, the EC50 on M1 muscarinic receptor (Table 5) is 2 to 10 µM; on M4 muscarinic receptor (Table 5), below 2 µM.

Consider `CN(C)C(=O)N1CC2(CCN(C3CCN(c4ccccn4)CC3)CC2)c2cc(F)ccc21` [compound 1039], for which, at M1 muscarinic receptor (Table 5), the maximum response (Emax) was 25 to 100% and the EC50 fell in the range of 2 to 10 µM. On M4 muscarinic receptor (Table 5), the Emax was in the range of 25 to 100% and the EC50 was below 2 µM.

Take `CN(C)C(=O)N1CC2(CCN(C3CCN(c4cccnc4)CC3)CC2)c2cc(F)ccc21` [compound 1040]: at M1 muscarinic receptor (Table 5), the Emax is 25 to 100% and the EC50 is below 2 µM. For the same compound, on M4 muscarinic receptor (Table 5), the Emax fell in the range of 25 to 100% and the EC50 was below 2 µM.

`CN(C)C(=O)N1CC2(CCN(C3CCN(c4ccsc4)CC3)CC2)c2cc(F)ccc21` [compound 1041]: on M1 muscarinic receptor (Table 5), the Emax is 25 to 100% and the EC50 was in the range of 2 to 10 µM. Moreover, on M4 muscarinic receptor (Table 5), the Emax was in the range of 25 to 100% and the EC50 was in the range of 2 to 10 µM.
